# Measured values taken from publication PMC6817585, “Simultaneous Determination of Five Alkaloids by HPLC-MS/MS Combined With Micro-SPE in Rat Plasma and Its Application to Pharmacokinetics After Oral Administration of Lotus Leaf Extract” (Frontiers in Pharmacology, 2019).
# Read-outs that look alike come from different tables or passages of the source.
# Key:
# [1] = Stability of stock and working solutions; assay type: physicochemical; conditions: working solution, n = 6
# Protocol: (§1) The stabilities (including auto-sampler, freeze–thaw cycles, and short-time and long-term stability) of all analytes were obtained by testing QC samples of four concentrations. Moreover, the stabilities for stock and working solution were assessed with mixed standard substance (100 ng·ml^−1) and the QC sample solutions of four concentration levels, respectively. These solutions were achieved by diluting stock solutions kept at 4°C for 2 weeks. For IS, the evaluated procedures of two stabilities were same as the five alkaloids.
# [2] = Pharmacokinetics of five alkaloids in rat plasma after oral administration of lotus leaf extract; assay type: in vivo, Male Sprague-Dawley rats
# Protocol: All analyses were performed on Agilent 1200 HPLC system (Agilent Corporation, USA) and API 3200 triple-quadrupole mass spectrometer (Concord, Ontario, Canada) in multiple-reaction monitoring (MRM) with positive ionization mode. Acetonitrile (A) and formic acid aqueous solution (B) (0.1%, v/v) is used to separate the analytes on Eclipse plus C18 column (4.6 mm × 100 mm, 1.8 µm) with a guard C18 column (2.1 mm × 12.5 mm, 5 µm). The gradient of elution is as follows: 5%–60% A at 0 to 4 min, 60%–70% A at 4 to 5 min, 70%–93% A at 5 to 7 min, 93%–94% A at 7 to 11 min, 94%–5% A at 11 to 12 min, and 5%–5% A at 12 to 17 min. The flow rate and injection volume are 0.3 ml·min^-1 and 5 µl, respectively. The main parameters of ion source including the ion spray voltage, the curtain gas, and temperature are set at 5000 V, 35 psi, and 450°C, respectively.
# The real plasma sample (100 µl) and IS solution (10 µl) were vortex-mixed for 1 min. The sample was carried out with the SPE column (Cleanert PEP-2, 40–60 µm, 60 Å, 10 mg/1 ml; Phenomenex, Torrance, CA, USA). First, SPE columns were activated by 50% methanol in water (1 ml) and 0.1% formic acid in water (1 ml) and were used to activate the SPE column in sequence. Second, columns were washed with 200 µl methanol (20%, v/v) and eluted with acetonitrile (400 µl) after the plasma samples were added. Finally, the eluent was centrifuged for 10 min with 14,000 rpm. Then final solutions were injected into the HPLC-MS/MS and analyzed.
# The pharmacokinetic study was conducted in accordance with the Guidelines for the Care and Use of Laboratory Animals by the US National Institutes of Health and approved by the Animal Ethics Committee of Tianjin University of Traditional Chinese Medicine (permit number: TCM-LAEC2019022, Tianjin, China),. Male Sprague-Dawley rats (240–260 g) were fed in the animal laboratory of the Tianjin University of Traditional Chinese Medicine under the standard conditions. These rats were allowed free to get standard laboratory food and water and conformed for 1 week until 12 h before experiment. These rats (n = 10) were fasted, although they were still given water for 12 h, before the oral administration of lotus leaf extract. […] The plasma samples were centrifuged in 10 min at 7000 rpm and kept at −20°C until analyzed.
# All of the pharmacokinetic parameters were calculated by one compartment model with DAS 1.0 software (Medical College of Wannan). The maximum drug concentration (Cmax) and the time to reach Cmax (Tmax) were acquired from observed concentration–time profile for oral administration in plasma. All data were shown as mean ± SD.
# [3] = Stability of analytes in rat plasma QC samples (auto-sampler, freeze-thaw, short-time, long-term); assay type: in vitro ADME
# Protocol: as §1
# [4] = concentration LLOQ, from stock kept at 4°C for 2 weeks
# [5] = male, Sprague-Dawley, rat, in vivo, po, 2.4 g/kg
# [6] = rat plasma, oral lotus leaf extract 2.4 g·kg^−1, n = 10, mean ± SD
structure (smiles),measurement,setting,value
"COc1cc2c3c(c1OC)C1(C=CC(=O)C=C1)C[C@H]3N(C)CC2 [Pronuciferine, pronuciferine]","Remain, working solution",[1]; 2 ng/ml,92.9%
same,"Remain, working solution",[1]; 100 ng/ml,99.9%
same,"Remain, working solution",[1]; 500 ng/ml,105%
same,"Remain, working solution",[1]; [4],99.3%
same,AUC,[2]; [5],2030 ± 717 ng·h/mL
same,AUC(0-inf),[2]; [5],2100 ± 704 ng·h/mL
same,Cmax,[2]; [5],210 ± 87 ng/mL
same,MRT,[2]; [5],7.43 ± 1.18 h
same,MRT inf,[2]; [5],8.36 ± 1.98 h
same,Tmax,[2]; [5],4.9 ± 1.37 h
same,half-life,[2]; [5],4.44 ± 1.88 h
same,Absorption after orally administrating the lotus leaf extract (in words),"[2]; rat, in vivo, po",slow absorption
same,Plasma exposure (in words),"[2]; rat, in vivo, po",abundant plasma exposure
same,AUCs(0–24 h),"[2]; rat, in vivo, po, 2.4 g/kg",2030 ± 716 ng·h/mL
same,"Remain, freeze thaw cycles","[3]; rat, plasma",81.9%
same,"Remain, freeze thaw cycles","[3]; rat, plasma, 2 ng/ml",93.3%
same,"Remain, freeze thaw cycles","[3]; rat, plasma, 100 ng/ml",85.5%
same,"Remain, freeze thaw cycles","[3]; rat, plasma, 500 ng/ml",87.2%
same,"Remain, −80°C for 1 month","[3]; rat, plasma, 1 month",99.2%
same,"Remain, −80°C for 1 month","[3]; rat, plasma, 1 month, 2 ng/ml",99.0%
same,"Remain, −80°C for 1 month","[3]; rat, plasma, 1 month, 100 ng/ml",93.9%
same,"Remain, −80°C for 1 month","[3]; rat, plasma, 1 month, 500 ng/ml",90.4%
same,"Remain, autosampler for 24 h","[3]; rat, plasma, 24 h",85.5%
same,"Remain, room temperature for 24 h","[3]; rat, plasma, 24 h",89.2%
same,"Remain, autosampler for 24 h","[3]; rat, plasma, 24 h, 2 ng/ml",88.3%
same,"Remain, room temperature for 24 h","[3]; rat, plasma, 24 h, 2 ng/ml",106%
same,"Remain, autosampler for 24 h","[3]; rat, plasma, 24 h, 100 ng/ml",92.6%
same,"Remain, room temperature for 24 h","[3]; rat, plasma, 24 h, 100 ng/ml",98.9%
same,"Remain, autosampler for 24 h","[3]; rat, plasma, 24 h, 500 ng/ml",87.5%
same,"Remain, room temperature for 24 h","[3]; rat, plasma, 24 h, 500 ng/ml",87.1%
"COc1cc2c3c(c1OC)-c1ccccc1C[C@H]3N(C)CC2 [Nunciferine, nunciferine]","Remain, working solution",[1]; 2 ng/ml,92.5%
same,"Remain, working solution",[1]; 100 ng/ml,98.7%
same,"Remain, working solution",[1]; 500 ng/ml,108%
same,"Remain, working solution",[1]; [4],101%
same,MRT,"[2]; male, Sprague-Dawley, rat, in vivo, po, 2.4 g/kg, rat plasma, oral lotus leaf extract 2.4 g·kg^−1, n = 10, mean ± SD, read-out: MRT(0–tn)",5.49 ± 0.96 h
same,MRT inf,"[2]; male, Sprague-Dawley, rat, in vivo, po, 2.4 g/kg, rat plasma, oral lotus leaf extract 2.4 g·kg^−1, n = 10, mean ± SD, read-out: MRT(0–∞)",6.14 ± 1.47 h
same,Tmax,"[2]; male, Sprague-Dawley, rat, in vivo, po, 2.4 g/kg, rat plasma, oral lotus leaf extract 2.4 g·kg^−1, n = 10, mean ± SD, read-out: Tmax",3.5 ± 1.84 h
same,half-life,"[2]; male, Sprague-Dawley, rat, in vivo, po, 2.4 g/kg, rat plasma, oral lotus leaf extract 2.4 g·kg^−1, n = 10, one compartment model, mean ± SD, read-out: T1/2 (converted)",6.18 ± 3.1 h
same,AUCs(0–24 h),"[2]; rat plasma, oral lotus leaf extract 2.4 g·kg^−1",2070 ± 919 ng·h/mL
same,AUC(0–tn),[2]; [6],2069 ± 919 ng·h/mL
same,AUC(0–∞),[2]; [6],2142 ± 961 ng·h/mL
same,Cmax,[2]; [6],317.58 ± 175.05 ng/mL
same,Cmax,"[2]; rat plasma, oral lotus leaf extract 2.4 g·kg^−1, n = 10, mean ± SD, listed as nunciferine",317.6 ± 175.1 ng/mL
same,Plasma exposure (in words),"[2]; rat, oral lotus leaf extract 2.4 g·kg^−1",abundant plasma exposure
same,"Remain, autosampler for 24 h","[3]; rat plasma QC, autosampler 24 h, 2 ng/ml, n = 6",89.7%
same,"Remain, autosampler for 24 h","[3]; rat plasma QC, autosampler 24 h, 100 ng/ml, n = 6",98.4%
same,"Remain, autosampler for 24 h","[3]; rat plasma QC, autosampler 24 h, 500 ng/ml, n = 6",85.4%
same,"Remain, autosampler for 24 h","[3]; rat plasma QC, autosampler 24 h, LLOQ, n = 6",87.5%
same,"Remain, freeze thaw cycles","[3]; rat plasma QC, freeze thaw cycles, 2 ng/ml, n = 6",92.5%
same,"Remain, freeze thaw cycles","[3]; rat plasma QC, freeze thaw cycles, 100 ng/ml, n = 6",92.0%
same,"Remain, freeze thaw cycles","[3]; rat plasma QC, freeze thaw cycles, 500 ng/ml, n = 6",85.3%
same,"Remain, freeze thaw cycles","[3]; rat plasma QC, freeze thaw cycles, LLOQ, n = 6",95.9%
same,"Remain, room temperature for 24 h","[3]; rat plasma QC, room temperature 24 h, 2 ng/ml, n = 6",96.5%
same,"Remain, room temperature for 24 h","[3]; rat plasma QC, room temperature 24 h, 100 ng/ml, n = 6",109%
same,"Remain, room temperature for 24 h","[3]; rat plasma QC, room temperature 24 h, 500 ng/ml, n = 6",89.3%
same,"Remain, room temperature for 24 h","[3]; rat plasma QC, room temperature 24 h, LLOQ, n = 6",94.4%
same,"Remain, −80°C for 1 month","[3]; rat plasma QC, −80°C 1 month, 2 ng/ml, n = 6",96.3%
same,"Remain, −80°C for 1 month","[3]; rat plasma QC, −80°C 1 month, 100 ng/ml, n = 6",100%
same,"Remain, −80°C for 1 month","[3]; rat plasma QC, −80°C 1 month, 500 ng/ml, n = 6",91.4%
same,"Remain, −80°C for 1 month","[3]; rat plasma QC, −80°C 1 month, LLOQ, n = 6",99.4%
